Several values for one entry are separate records, joined by “and”; a condition that tells them apart may be missing. Equal values may be shown once.

The target of the experiment is Nonstructural protein 3 (Zika virus, UniProt A0A024AXB9). Kind of experiment: Functional biochemical assay to identify treatments for viral infectious disease that targets Zika NS2B-NS3 protease. Utilizing a direct enzyme activity measurement method, reading the fluorescence intensity is used to characterize the relative potency of inhibitors as IC50. The arrangement: species or system PRVABC59.
Chain of Nonstructural protein 3 (A0A024AXB9 whole entry): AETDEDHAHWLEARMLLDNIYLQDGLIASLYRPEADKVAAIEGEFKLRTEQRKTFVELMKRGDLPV
As a reminder, the IC50 is the concentration that gives 50% inhibition. Low values mean greater potency in that assay, high ones weaker potency in that assay. With `c1ccc2c(CN3CCCc4cnccc4C3)n[nH]c2c1`, the IC50 is greater than 99.5 µM.

`NCc1cccc(NC(=O)[C@H](NS(=O)(=O)c2cccc(Cl)c2)c2ccc(OCc3ccccc3)cc2)c1` returned an IC50 of 57.2 µM.

As for `NCc1nccc(NC(=O)c2cc(Cl)cc(NC(=O)OCc3ccccc3)c2)n1`, the IC50 is greater than 99.5 µM.

`CCn1cc(C(=O)Nc2ccccc2)nc(N2CC[C@@H](CO)C2)c1=O` registered an IC50 greater than 99.5 µM.

Consider `O=C(Nc1cc(Cl)cc(C(=O)Nc2cccc(C3CCNCC3)c2)c1)OCc1ccccc1`, for which the IC50 is 13.2 µM and 12.5 µM.

As to `NCc1cccc(NC(=O)[C@@H]2C[C@@H]3CC[C@H]2N3C(=O)OCc2ccccc2)c1`, the IC50 is greater than 99.5 µM.

As for `CCCNC(=O)Cn1ccnc(N2CC[C@H](CO)C2)c1=O`, the IC50 is greater than 99.5 µM.

The molecule `COc1cc(C(=O)O)c(S(=O)(=O)Nc2ccc(Oc3ccccc3Cl)cc2)cc1F` registered an IC50 of 91.6 µM. This counts as double-digit micromolar.

For `NCc1ccc(CNC(=O)c2cc(Cl)cc(NC(=O)OCc3ccccc3)c2)cc1`, the midpoint of inhibition, the IC50, lay at 42.6 µM.

Molecule `COc1ccc(C)cc1S(=O)(=O)N[C@@H](C(=O)Nc1cccc(CN)c1)c1ccc(OCc2ccccc2)cc1` showed a half-maximal inhibitory concentration (IC50) of 54.6 µM.

As for `CN(C)Cc1cccc(-c2ccc(S(=O)(=O)Nc3ccc(Cl)cc3C(=O)O)cc2)c1`, the IC50 is greater than 99.5 µM.

Molecule `NCc1cccc(NC(=O)[C@@H](NS(=O)(=O)CCc2ccccc2)c2ccc(OCc3ccccc3)cc2)c1` showed an IC50 of 34 µM.

`NCc1cccc(NC(=O)[C@@]23C[C@@H](NC(=O)OCc4ccccc4)C[C@@H]2C3)c1`: the IC50 was greater than 99.5 µM.

The molecule `NCc1cccc(NC(=O)[C@H](NS(=O)(=O)C2CCCCC2)c2ccc(OCc3ccccc3)cc2)c1` displayed an IC50 of 64.8 µM.

On to `NCc1cccc(NC(=O)C[C@H](NC(=O)OCc2ccccc2)c2ccc(OCc3ccccc3)c(Br)c2)c1`, for which the IC50 was 2.72 µM and 2.68 µM and 3.22 µM and 3.04 µM.

On to `Cn1ccc(-c2n[nH]cc2CN2CCC(c3nc4ccccc4s3)CC2)n1`, for which the IC50 was greater than 99.5 µM.

In the case of `NCc1cccc(NC(=O)C[C@@H](NC(=O)OCc2ccccc2)c2ccc3c(c2)OCO3)c1`, the 50% inhibitory concentration (IC50) was greater than 99.5 µM.

The molecule `O=C(O)c1cc(Cl)cc(Cl)c1S(=O)(=O)Nc1ccc(Oc2ccccc2Cl)cc1` returned a half-inhibitory concentration (IC50) greater than 99.5 µM.

As for `O=C(O)c1cc(Cl)ccc1NS(=O)(=O)c1ccc(-c2cc[nH]n2)cc1`, the IC50 is greater than 99.5 µM.

For the molecule `O=C(O)c1cc(Cl)ccc1S(=O)(=O)N[C@H]1CCn2c(nnc2C(F)(F)F)C1`, the IC50 is greater than 99.5 µM.

As to `CCNC(=O)c1cn(CC)c(=O)c(N2CC[C@@H](CO)C2)n1`, the IC50 is greater than 99.5 µM.

`CCn1nccc1S(=O)(=O)N[C@@H](C(=O)Nc1cccc(CN)c1)c1ccc(OCc2ccccc2)cc1` showed an IC50 greater than 99.5 µM.

As to `CCn1ccnc(N2CCC[C@H]2C(=O)O)c1=O`, the IC50 is greater than 99.5 µM.

The molecule `NCC1CCN(C(=O)c2cc(Cl)cc(NC(=O)OCc3ccccc3)c2)CC1` displayed an IC50 of 97.3 µM.

`O=C(O)c1cc(Cl)ccc1S(=O)(=O)NC1CCN(c2ncnc3c2CCC3)CC1` showed an IC50 greater than 99.5 µM.

For `Cn1ccc(CS(=O)(=O)N[C@@H](C(=O)Nc2cccc(CN)c2)c2ccc(OCc3ccccc3)cc2)n1`, the IC50 was greater than 99.5 µM.

`O=C(O)c1cc(Cl)ccc1S(=O)(=O)NC1CCN(S(=O)(=O)Cc2ccccc2)CC1` registered an IC50 greater than 99.5 µM.

`O=C(O)c1cc(Cl)ccc1S(=O)(=O)Nc1ccc(C(=O)N2CCCCC2)cc1` returned an IC50 greater than 99.5 µM.

Molecule `O=C(O)c1cc(Cl)ccc1NS(=O)(=O)c1ccc(-c2ccncc2)cc1` had a 50% inhibitory concentration (IC50) greater than 99.5 µM.

For `CN(C)[C@@H]1C[C@H](C(=O)Nc2cccc(CN)c2)CN(C(=O)OCc2ccccc2)C1`, the IC50 was greater than 99.5 µM.

Molecule `c1cncc(CC2CN(Cc3n[nH]c4ccccc34)C2)c1` gave a concentration for half-maximal inhibition (IC50) greater than 99.5 µM.

Consider `O=C(O)c1cc(Cl)ccc1NS(=O)(=O)c1ccc(-c2cncs2)cc1`, for which 34.4 µM corresponded to half-maximal inhibition (IC50).

`O=C(Nc1cc(Cl)cc(C(=O)Nc2cccc(CC3CCNCC3)c2)c1)OCc1ccccc1` registered an IC50 greater than 99.5 µM.

With `NCc1cccc(NC(=O)C[C@@H](NC(=O)OCc2ccccc2)C2CCCCC2)c1`, the 50% inhibitory concentration (IC50) was > 99.5 µM and 56.7 µM.

The molecule `NCc1cccc(NC(=O)C[C@@H]2[C@H]3CC[C@H](C3)N2C(=O)OCc2ccccc2)c1` returned a 50% inhibitory concentration (IC50) greater than 99.5 µM.

In the case of `NCc1cccc(NC(=O)[C@H](NC(=O)COc2ccccc2)c2ccc(OCc3ccccc3)cc2)c1`, it took 26.5 µM to reach half-maximal inhibition (IC50).

For the molecule `NCCc1ccc(NC(=O)c2cc(Cl)cc(NC(=O)OCc3ccccc3)c2)cc1`, the IC50 came out at 10.7 µM.

Regarding `Cn1cc(CCOc2ccc([C@@H](NC(=O)OCc3ccccc3)C(=O)Nc3cccc(CN)c3)cc2)nn1`, the concentration for half-maximal inhibition (IC50) is greater than 99.5 µM.

Turning to `Cc1cc(NS(=O)(=O)c2ccc(Cl)cc2C(=O)O)nn1Cc1ccccc1`, the IC50 is greater than 99.5 µM.

As for `NCCc1cccc(NC(=O)c2cc(Cl)cc(NC(=O)OCc3ccccc3)c2)c1`, the IC50 is 4.1 µM and 3.91 µM.

`Fc1cccc(F)c1-c1n[nH]cc1CN1CCC(c2nc3ccccc3s2)CC1` registered an IC50 greater than 99.5 µM.

In the case of `COC(=O)Cc1ccccc1-c1ccc(S(=O)(=O)Nc2ccc(Cl)cc2C(=O)O)cc1`, the concentration for half-maximal inhibition (IC50) was greater than 99.5 µM.

As for `N#Cc1ccc(S(=O)(=O)Nc2ccc(Oc3ccccc3Cl)cc2)c(C(=O)O)c1`, the concentration for half-maximal inhibition (IC50) is greater than 99.5 µM.

The molecule `O=C(O)c1cc(Cl)ccc1S(=O)(=O)Nc1ccc(-c2n[nH]c3c2CCCC3)cc1` yielded an IC50 greater than 99.5 µM.

For the molecule `Cc1cc(C)cc(C(=O)N2CCC(NS(=O)(=O)c3ccc(Cl)cc3C(=O)O)CC2)c1`, the IC50 is greater than 99.5 µM.

In the case of `O=C(O)c1cc(Cl)ccc1S(=O)(=O)Nc1ccc(S(=O)(=O)N2CCCCC2)cc1`, the IC50 was greater than 99.5 µM.

In turn, `COc1ccc([C@@H](CC(=O)Nc2cccc(CN)c2)NC(=O)OCc2ccccc2)cc1Br` came in with an IC50 of 93.9 µM.

Molecule `COC(=O)c1n[nH]cc1CN1CCC(c2nc3ccccc3s2)CC1` had an IC50 greater than 99.5 µM.

Take `CCC1([C@H](NC(=O)OCc2ccccc2)C(=O)Nc2cccc(CN)c2)CCCCC1`: the IC50 was greater than 99.5 µM.

For the molecule `CCOC1CC(S(=O)(=O)N[C@H](C(=O)Nc2cccc(CN)c2)c2ccc(OCc3ccccc3)cc2)C1` (stereo partly specified), the IC50 is greater than 99.5 µM.

Consider `NCc1cccc(NC(=O)[C@H]2[C@@H]3CC[C@@H](C3)[C@H]2NC(=O)OCc2ccccc2)c1`, for which the IC50 is 30.8 µM and 30.7 µM.

On to `O=C(O)c1cc(Cl)ccc1S(=O)(=O)Nc1ccc(CN2CCCCC2)cc1`, for which the 50% inhibitory concentration (IC50) is greater than 99.5 µM.

Consider `COc1ncc(C(=O)Nc2cccc(CN)c2)cc1NC(=O)OCc1ccccc1`, for which the half-inhibitory concentration (IC50) was greater than 99.5 µM.

`C[C@@H]1C[C@H](NS(=O)(=O)c2ccc(Cl)cc2C(=O)O)C[C@H](C)N1Cc1ccccc1` registered an IC50 greater than 99.5 µM.

Consider `CSc1ccc([C@H](CC(=O)Nc2cccc(CN)c2)NC(=O)OCc2ccccc2)cc1`, for which the midpoint of inhibition, the IC50, lay at 43.7 µM.

Molecule `O=C(O)c1cc(Cl)ccc1S(=O)(=O)NC1CCN(S(=O)(=O)c2cccs2)CC1` had an IC50 greater than 99.5 µM.

`NC1CCN(C(=O)c2cc(Cl)cc(NC(=O)OCc3ccccc3)c2)CC1`: the IC50 was greater than 99.5 µM.

`c1ccc(-c2ncc(CN3CCC(c4nc5ccccc5s4)CC3)[nH]2)cc1` came in with an IC50 greater than 99.5 µM.

`Cc1cccc(N2CCC(NS(=O)(=O)c3ccc(Cl)cc3C(=O)O)CC2)n1`: the IC50 is greater than 99.5 µM.

`c1ccc2sc(C3CCN([C@H]4Cc5[nH]c6ccccc6c5C4)CC3)nc2c1`: the concentration for half-maximal inhibition (IC50) was greater than 99.5 µM.

On to `CCn1cc(C(=O)NCc2ccccc2)nc(N2CC[C@@H](CO)C2)c1=O`, for which the IC50 is greater than 99.5 µM.

The molecule `C[C@@H](N)c1ccc(NC(=O)c2cc(Cl)cc(NC(=O)OCc3ccccc3)c2)cc1` gave an IC50 of 14.6 µM.

For the molecule `CCn1cc(C(=O)N2CCN(C)CC2)nc(N2CC[C@@H](CO)C2)c1=O`, the IC50 is greater than 99.5 µM.

Consider `NCc1cccc(NC(=O)[C@@H](NS(=O)(=O)C[C@H]2CCCCO2)c2ccc(OCc3ccccc3)cc2)c1`, for which the IC50 was greater than 99.5 µM.

For the molecule `CCc1ncc(CN2CCC(c3nc4ccccc4s3)CC2)[nH]1`, the IC50 is greater than 99.5 µM.

Take `c1ccc2sc(C3CCN(Cc4n[nH]c5c4CCCC5)CC3)nc2c1`: the IC50 was greater than 99.5 µM.

On to `COc1ccc(-c2cc(NS(=O)(=O)c3ccc(Cl)cc3C(=O)O)ccc2OC)cc1`, for which the IC50 is greater than 99.5 µM.

Take `COc1n[nH]cc1CN1CCC(c2nc3ccccc3s2)CC1`: the IC50 was greater than 99.5 µM.

Regarding `O=C(O)c1cc(Cl)ccc1NS(=O)(=O)c1ccc(-c2ccc(F)cc2)cc1`, the half-inhibitory concentration (IC50) was 32.9 µM.

Molecule `CC1(N2CCC(NS(=O)(=O)c3ccc(Cl)cc3C(=O)O)CC2)CCCCC1` gave a half-inhibitory concentration (IC50) greater than 99.5 µM.

As to `CCCOc1ccc([C@@H](CC(=O)Nc2cccc(CN)c2)NC(=O)OCc2ccccc2)cc1`, the IC50 is > 99.5 µM and 66.2 µM.

As to `CN(C)c1cc(-c2ccc(S(=O)(=O)Nc3ccc(Cl)cc3C(=O)O)cc2)ccn1`, the IC50 is greater than 99.5 µM.

In turn, `NCc1cccc(NC(=O)[C@@H](NS(=O)(=O)c2ccccc2F)c2ccc(OCc3ccccc3)cc2)c1` yielded an IC50 of 99 µM.

For `c1ccc2c(CN[C@H]3CCc4c([nH]c5ccccc45)C3)n[nH]c2c1`, the IC50 is greater than 99.5 µM.

Consider `CN1CC=C(c2ccc(S(=O)(=O)Nc3ccc(Cl)cc3C(=O)O)cc2)CC1`, for which the IC50 was greater than 99.5 µM.

The molecule `CN(C(=O)c1cc(Cl)cc(NC(=O)OCc2ccccc2)c1)c1ccc(CN)cc1` gave an IC50 greater than 99.5 µM.

On to `CC(=O)N1CCC[C@H]1C(=O)N[C@@H](C(=O)Nc1cccc(CN)c1)c1ccc(OCc2ccccc2)cc1`, for which the IC50 is greater than 99.5 µM.

In the case of `c1cncc(C2CC(NCc3n[nH]c4ccccc34)C2)c1` (stereo unspecified), the IC50 is greater than 99.5 µM.

The molecule `COc1ccc(NS(=O)(=O)c2ccc(Cl)cc2C(=O)O)cc1S(=O)(=O)N1CCCC1` yielded an IC50 greater than 99.5 µM.

In the case of `N#Cc1ccccc1O[C@H]1CC[C@H](NS(=O)(=O)c2ccc(Cl)cc2C(=O)O)CC1`, the 50% inhibitory concentration (IC50) is greater than 99.5 µM.

As for `O=C(O)c1cc(Cl)ccc1S(=O)(=O)Nc1ccc(F)c(NC(=O)C2CC2)c1`, the 50% inhibitory concentration (IC50) was greater than 99.5 µM.

As to `NC[C@H]1CC[C@H](CNC(=O)c2cc(Cl)cc(NC(=O)OCc3ccccc3)c2)CC1`, the IC50 was 25.4 µM and 25.7 µM.

The molecule `O=C(O)c1cc(Cl)ccc1S(=O)(=O)NC1CCN(c2nc(C3CC3)cc(C(F)(F)F)n2)CC1` showed an IC50 of 46.6 µM.

As to `CCc1ccc(S(=O)(=O)N[C@@H](C(=O)Nc2cccc(CN)c2)c2ccc(OCc3ccccc3)cc2)cc1`, the IC50 was found to be 52.3 µM. This IC50 and that of the molecule before are within 1.5-fold of each other.

Turning to `CCn1cc(S(=O)(=O)N[C@@H](C(=O)Nc2cccc(CN)c2)c2ccc(OCc3ccccc3)cc2)cn1`, the half-inhibitory concentration (IC50) is greater than 99.5 µM.

`NCc1cccc(NC(=O)c2cc(Br)cc(NC(=O)OCc3ccccc3)c2)c1`: inhibition was half-maximal at 7.91 µM (IC50).

The values are drawn from ChEMBL document CHEMBL5604062, “ASAP - ZIKV NS2B-NS3 protease fluorescence dose response” (2024).
